This is an account of results in patent US20200038423A1, “USE OF 6-O-(C8-C20 ALKYL ESTER) OF 1-O-(C1-C6 ALKYL)-ß-D-GLUCOSIDE AS AN AGENT FOR PROTECTING THE SKIN” (PIERRE FABRE DERMO-COSMETIQUE, priority 2016, published 2020).

Assay type in all cases: cell-based
One assay has as its system FABP5. The assay is described as follows: RT-qPCR, modulation of genes involved in keratinocyte differentiation and hydration: FABP5. Particulars: CaCl2 1.5 mM; normal human keratinocytes, 48 h; lipid differentiation marker. How it is done: (§1) Normal human keratinocytes were incubated for 48 h with 1-O-n-butyl-β-D-glucoside 6-O-lauroyl. Its effects were evaluated using the RT-qPCR technique with the analysis of 6 target genes, chosen for their importance in keratinocyte differentiation and hydration.

The next assay has as its system CASP14. Put plainly: RT-qPCR, modulation of genes involved in keratinocyte differentiation and hydration: CASP14. The settings on record: CaCl2 1.5 mM; normal human keratinocytes, 48 h; protein differentiation marker. Here is the method:
as §1
(Real-time PCR tracks product formation cycle by cycle.)

A further assay deals with KLK7. Put plainly: RT-qPCR, modulation of genes involved in keratinocyte differentiation and hydration: KLK7. Particulars: CaCl2 1.5 mM; normal human keratinocytes, 48 h; protein differentiation marker. Here is the method:
as §1

The next assay deals with SULT2B1. Put plainly: RT-qPCR, modulation of genes involved in keratinocyte differentiation and hydration: SULT2B1. The settings on record: CaCl2 1.5 mM; normal human keratinocytes, 48 h; lipid differentiation marker. Here is the method: as §1
Another assay relates to DEGS2. Put plainly: RT-qPCR, modulation of genes involved in keratinocyte differentiation and hydration: DEGS2. Particulars: CaCl2 1.5 mM; normal human keratinocytes, 48 h; lipid differentiation marker. Here is the method: as §1
The subject of the next assay is TGM1. The assay is described as follows: RT-qPCR, modulation of genes involved in keratinocyte differentiation and hydration: TGM1. Particulars: CaCl2 1.5 mM; normal human keratinocytes, 48 h; protein differentiation marker. How it is done:
as §1

Assay [1] deals with primary normal human keratinocytes. Put plainly: Oris Cell Migration Assay, keratinocyte migration. Particulars: for % Stim (% stimulation of keratinocyte migration): 24 h migration. How it is done: Oris™ Cell Migration Assays were used to estimate cell migration.
Primary normal human keratinocytes isolated from tissues extracted during cosmetic surgery were seeded on 96-well plates and cultured in KSFM supplemented with 25 μg/ml bovine pituitary extract (BPE, Invitrogen) and 0.2 ng/ml EGF (Invitrogen). After 24 h of incubation, the culture medium is replaced with KSM without supplement. After 24 h of incubation, the Oris™ stoppers as well as the test compounds or positive controls are removed. The latter are 5 ng/ml TGF-β, 30 ng/ml EGF, or KSM supplemented with BPE and EGF. Incubation continues for the next 24 h to allow migration. At the end of incubation, Calcein AM dye, which penetrates the cells, is added to the wells and is converted to fluorescence which is then quantified in a detection zone using a monochromatic microplate (Clariostar, BMG Labteck).
The compound tested is 1-O-n-butyl-β-D-glucoside 6-O-lauroyl, it is solubilized in DMSO at a concentration of 100 mM. The compound is tested at 2, 10 and 20 μM. The effect of DMSO at the tested concentrations has no effect on keratinocyte migration. The experiments are repeated on 2 donors with 8 wells for each condition.
The quantification of the fluorescence emitted in the detection zone is proportional to keratinocyte migration. Statistical analyses (Mann-Whitney test) are used to analyze the effect of the compound. After fluorescence quantification, the cells were rapidly fixed in 4% paraformaldehyde before eosin-hematoxylin staining and observed under a microscope.

For assay [2], the system named is Normal human keratinocytes. Put plainly: Keratinocyte differentiation judged from RT-qPCR of 6 target genes. Particulars: 20 μM, incubation for 48 h. How it is done: as §1

In the case of `[Ca+2].[Cl-].[Cl-]` [CaCl2], in the assay on FABP5, the “FABP5 expression, Mean (% Control)” value was 501 % Control. Besides, the “CASP14 expression, Mean (% Control)” value in the assay with CASP14 is given as 127 % Control. Also, the “KLK7 expression, Mean (% Control)” value with KLK7 is 994 % Control. The “SULT2B1 expression, Mean (% Control)” value in the assay with SULT2B1 is reported as 1169 % Control. For the same compound, the “DEG S2 expression, Mean (% Control)” value with DEGS2 was found to be 217 % Control. Moreover, the “TGM1 expression, Mean (% Control)” value in the assay on TGM1 is given as 910 % Control.
For `CCCCCCCCCCCC(=O)OC[C@H]1O[C@@H](OCCCC)[C@H](O)[C@@H](O)[C@@H]1O` [β-LBG, 1-O-n-butyl-β-D-glucoside 6-O-lauroyl], in assay [1] (both donors tested, at either 10 μM or 20 μM), the keratinocyte migration result was “stimulates keratinocyte migration”. Moreover, the “migration of normal human keratinocytes” value in assay [1] (concentrations of 10 to 20 μM) is on record as “significantly stimulates”. Besides, the “% Stim (% stimulation of keratinocyte migration)” value in assay [1] (donor 1, 2 μM) is given as −30%; in assay [1] (donor 1, 10 μM), 41%; in assay [1] (donor 1, 20 μM), 104%; in assay [1] (donor 2, 2 μM), 46%; in assay [1] (donor 2, 10 μM), 63%; in assay [1] (donor 2, 20 μM), 21%. Moreover, in assay [2], the keratinocyte differentiation result was “induces reproducible keratinocyte differentiation”.
For “EGF: positive control of migration, 30 ng/ml EGF [reference compound]”, the “% Stim (% stimulation of keratinocyte migration)” value in assay [1] (donor 1, 30 ng/ml) was 35%; in assay [1] (donor 2, 30 ng/ml), 87%.
